What was measured:
[1] = molecular target: T1, Androgen receptor (Homo sapiens, UniProt P10275); assay: Antagonist activity at AR in human MDA-kb2 cells co-transfected with MMTV-luc assessed as decrease in DHT-induced luciferase activity by reporter gene assay; assay type: functional, cell-based
T1 sequence (P10275 whole entry): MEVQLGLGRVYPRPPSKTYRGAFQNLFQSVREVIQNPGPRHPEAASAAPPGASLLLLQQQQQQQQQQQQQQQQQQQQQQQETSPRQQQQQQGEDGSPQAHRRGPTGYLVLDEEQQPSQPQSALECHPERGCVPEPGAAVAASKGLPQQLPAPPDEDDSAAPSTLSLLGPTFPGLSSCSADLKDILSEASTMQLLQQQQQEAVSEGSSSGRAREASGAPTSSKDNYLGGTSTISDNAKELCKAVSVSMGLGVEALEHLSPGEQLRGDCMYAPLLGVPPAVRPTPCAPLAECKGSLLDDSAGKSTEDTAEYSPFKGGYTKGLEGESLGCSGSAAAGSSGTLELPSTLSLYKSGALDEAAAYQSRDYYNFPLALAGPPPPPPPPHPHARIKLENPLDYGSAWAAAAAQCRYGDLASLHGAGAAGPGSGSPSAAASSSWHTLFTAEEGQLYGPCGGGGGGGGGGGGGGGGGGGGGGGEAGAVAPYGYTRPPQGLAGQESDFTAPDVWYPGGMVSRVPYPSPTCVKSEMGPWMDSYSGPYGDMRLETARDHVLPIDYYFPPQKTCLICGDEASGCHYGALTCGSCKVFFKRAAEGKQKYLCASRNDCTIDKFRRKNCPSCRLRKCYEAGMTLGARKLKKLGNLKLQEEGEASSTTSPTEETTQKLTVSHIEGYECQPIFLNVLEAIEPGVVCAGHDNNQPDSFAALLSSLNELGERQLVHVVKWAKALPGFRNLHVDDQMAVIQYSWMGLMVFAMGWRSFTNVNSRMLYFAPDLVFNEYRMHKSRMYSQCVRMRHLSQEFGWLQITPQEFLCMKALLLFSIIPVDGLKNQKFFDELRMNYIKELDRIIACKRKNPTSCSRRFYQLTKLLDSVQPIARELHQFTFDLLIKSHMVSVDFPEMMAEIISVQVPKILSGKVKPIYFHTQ

[2] = tested on: Rattus norvegicus; assay: Drug level in Wistar rat blood at 200 mg/kg; assay type: ADME, organism-based; set-up: dose 200 mg/kg; conditions: in vivo
[3] = tested on: Rattus norvegicus; assay: Drug level in Wistar rat blood at 10 g/kg; assay type: ADME, organism-based; conditions: in vivo, 10000 mg/kg

Drug uptake [3] | Structure (SMILES) | IC50 ([1]; read-out: IC50) | IC50 ([1]; read-out: pIC50 (converted)) | Drug uptake [2]
– | CC(=O)Cc1ccc(O)cc1 | 420 µM | 417 µM | –
– | CC(C)(C)CC(C)(C)c1ccc(O)cc1 | – | – | 80 ng/mL
4000 ng/mL | CC(=O)CCc1ccc(O)cc1 [RASPBERRYKETONE] | – | – | –
– | COc1cc(CCC(C)=O)ccc1O [ZINGERONE] | 153 µM | 151 µM | –
